Measured values as given in publication PMC5464344, “Analgesic and anti‐inflammatory properties of novel, selective, and potent EP4 receptor antagonists” (Pharmacology Research & Perspectives, 2017).

Tests used:
COX2 (h) = biological target: T1, COX2 (h) (Homo sapiens, UniProt P35354); assay: Off-target activity (CEREP), COX2; assay type: biochemical; settings: 10 μmol/L; obtained at CEREP (Blanco et al. 2016c); read-out: % Inh COX2 (h)
T1 construct: CEREP (contract laboratory that ran the assay)
T1 sequence (P35354 18-604): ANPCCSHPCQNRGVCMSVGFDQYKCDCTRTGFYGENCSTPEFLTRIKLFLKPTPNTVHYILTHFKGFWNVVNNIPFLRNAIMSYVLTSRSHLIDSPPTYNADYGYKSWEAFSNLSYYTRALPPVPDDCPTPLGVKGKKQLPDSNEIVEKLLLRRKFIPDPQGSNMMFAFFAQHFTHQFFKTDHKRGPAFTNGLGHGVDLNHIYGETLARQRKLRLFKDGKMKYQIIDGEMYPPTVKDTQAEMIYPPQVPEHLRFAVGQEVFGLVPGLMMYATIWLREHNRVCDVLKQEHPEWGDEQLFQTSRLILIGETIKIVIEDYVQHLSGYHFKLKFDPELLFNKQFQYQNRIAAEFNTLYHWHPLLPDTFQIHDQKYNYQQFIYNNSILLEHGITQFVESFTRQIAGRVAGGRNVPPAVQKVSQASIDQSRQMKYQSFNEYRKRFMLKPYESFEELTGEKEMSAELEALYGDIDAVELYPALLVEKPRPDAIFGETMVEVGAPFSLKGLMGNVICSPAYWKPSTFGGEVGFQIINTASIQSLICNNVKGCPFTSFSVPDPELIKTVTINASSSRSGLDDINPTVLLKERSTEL
Excerpt: The off‐target activity related to prostaglandin pathway (Table 2) were obtained at CEREP (Blanco et al. 2016c).

[1] = test system: female Lewis rats, collagen induced arthritis; assay: Type-II CIA model of inflammation and autoimmunity; assay type: in vivo; settings: rat CIA
Description: For the monoiodoacetate (MIA) and adjuvant induced arthritis (AIA) studies, male Lewis rats (Envigo, Indianapolis, IN) of approximately 8 weeks of age at the time of disease induction were used. For collagen induced arthritis studies (CIA) female Lewis rats (Charles River) weighing 150–170 g were used. Rats were housed in groups of 2 or 3 per cage and maintained in a constant temperature, and on a 12 h light/12 h dark cycle. Animals had free access to food and water at all times except during data collection.
On day 1 of the study ankle widths are measured across the joint (left side to right side) at the thickest point with calipers and rats immunized intradermally near the base of the tail with 0.4 mL of 1 mg/mL type II collagen (Elastin Products) emulsified with incomplete Freund's adjuvant (Sigma Aldrich). A second booster injection booster of 0.4 mL of the collagen emulsion was given on day 8 of the study. Ankle widths were measured on day 8 before the collagen injection and every 2–3 days thereafter until study end. On day 11 rats were randomized into five groups of eight animals based on inflammation (redness and/or swelling) in their hind paws and body weight. Rats were then dosed with vehicle (10% Acacia plus 0.05% antifoam) and compound 3 at doses of 3, 10, and 30 mg/kg. Prednisolone was included at a dose of 10 mg/kg as a positive control. Dosing was by oral gavage once daily for seventeen days at a dose volume of 5 mL/kg. On day 28 rats were euthanized and hind paws and knee joints collected for histology. Ankles and knees were fixed in neutral buffered formalin, decalcified, embedded in paraffin, and sectioned according to standard histological methodology and the joints were then scored by a pathologist using published scoring criteria (Bendele 2001; Levine et al. 2014).

human EP1 receptor = biological target: T2, human EP1 receptor (Homo sapiens, UniProt P34995); assay: [3H]-PGE2 receptor binding assay, EP1 membranes; settings: HEK293 membranes; [3H]-PGE2; geometric mean ± SEM; read-out: hEP1-4 receptor binding EP1 Ki
T2 construct: membrane preparation
T2 sequence (P34995 1-402): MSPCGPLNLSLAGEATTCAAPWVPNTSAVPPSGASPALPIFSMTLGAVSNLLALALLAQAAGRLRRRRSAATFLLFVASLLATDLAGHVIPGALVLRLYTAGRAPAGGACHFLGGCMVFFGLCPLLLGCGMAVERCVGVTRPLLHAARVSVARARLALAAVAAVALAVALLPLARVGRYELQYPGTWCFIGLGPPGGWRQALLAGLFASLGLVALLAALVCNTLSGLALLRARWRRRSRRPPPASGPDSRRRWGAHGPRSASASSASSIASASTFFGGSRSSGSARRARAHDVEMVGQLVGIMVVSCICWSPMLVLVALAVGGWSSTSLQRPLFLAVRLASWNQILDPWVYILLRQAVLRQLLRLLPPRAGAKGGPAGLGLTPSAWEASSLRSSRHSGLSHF
Description: Receptor binding assays were done using membrane preparations of HEK 293 cells transfected with various prostanoid receptors using previously published procedure (Nakao et al. 2007). EP1 and EP4 membranes were prepared from recombinant HEK293 cells stably expressing human EPl receptor (GenBank Accession # AY275470, Clone ID PER0100000, UMR cDNA Resource Center, Rolla, MO) or human EP4 receptor. EP2 and EP3 membranes were prepared from HEK293 cells transiently transfected with human EP2 receptor (GenBank Accession # AY275471, Clone ID PER0200000, UMR cDNA Resource Center, Rolla, MO) or human EP3 receptor (GenBank Accession # AY429108, Clone ID PER3VI0000, UMR cDNA Resource Center, Rolla, MO) plasmids. Frozen cell pellets were homogenized in homogenization buffer (10 mmol/L Tris‐HCl, pH7.4, 250 mmol/L sucrose, 1 mmol/L EDTA, 0.3 mmol/L indomethacin and protease inhibitor cocktail with EDTA (Roche Molecular Biochemicals, catalog # 1691498)) using a Teflon/glass homogenizer. After a low speed centrifugation (200g for 15 min at 4°C) the supernatant was subjected to high speed centrifugation (30,000g for 60 min at 4°C). Membrane protein preparation was aliquoted and quick frozen on dry ice prior to storage at −80°C. […] Compounds were tested in a 96‐well format using a three‐fold dilution series to generate 10‐point curves. […] The binding reaction was performed in 200 μL MES buffer (10 mmol/L MES, pH 6.0, 10 mmol/L MgCl2, and l mmol/L EDTA) using polystyrene 96‐well plates. […] The membranes were harvested by filtration (TomTek harvester), washed four times with cold buffer (10 mmol/L MES, pH 6.0, 10 mmol/L MgCl2), dried in a 60°C oven, and the radioactivity was quantified as counts per min (CPM) using a TopCount detector. […] Data were analyzed using a 4‐parameter nonlinear logistic equation. K i Conversion from IC50 Values (K i = […] where [L] is the ligand concentration). Results are expressed as the geometric mean ± standard deviation or geometric mean ± standard error as noted.

Ki (human EP1 receptor)	Compound	inhibition at 10 µM (COX2 (h))	other results
–	Cc1ccc(N2CCC(O)CC2)nc1C(=O)Nc1c(C)cc(C(=O)O)cc1C [Compound 1]	-10%	–
> 17.5 µM	Cc1ccc(-c2cccc(CO)c2)nc1C(=O)Nc1c(C)ccc(C(=O)O)c1C [Compound 3]	–	ankle histology, nearly all parameters and summed scores ([1]; 10 and 30 mg/kg oral once daily for seventeen days): significant reductions; knee joint histopathology (representative photomicrograph) ([1]; Fig. 10 bottom panel, prednisolone 10 mg/kg, compound 3 dose not given): minimal inflammation (S) and cartilage damage (large arrow), very minimal pannus (small arrow) and bone formation (P) not visible at this magnification; ankle joint histopathology (representative photomicrograph) ([1]; Fig. 10 top panel, prednisolone 10 mg/kg, compound 3 dose not given): moderate inflammation (S) and cartilage damage (large arrow), mild pannus (small arrow) and mild periosteal bone formation; ankle thickness ([1]; all three doses (3, 10, and 30 mg/kg) oral once daily, data not shown): significant reduction
–	C[C@H](NC(=O)[C@H]1CCCCN1CCOc1ccccc1)c1ccc(C(=O)O)cc1 [Compound 2]	-17%	–
> 26.7 µM	C[C@H](NC(=O)c1cc(Cl)ccc1Oc1ccc(F)cc1)c1ccc(C(=O)O)cc1 [CJ‐042,794, reference compound]	–	–
